Bridge positions count the residues as written; N and C are the ends. Square brackets hold non-standard residues; d marks the D form. Peptide text beside a SMILES is read from it. NMeF = CN[C@@H](Cc1ccccc1)C(=O)O
System: Kunming male mice
Assay: Photothermal tail flick experiment, subcutaneous injection
Assay type: in vivo
Settings: photothermal tail flick
Experimental: Two administration methods were used: peripheral subcutaneous administration and oral administration. Subsequently, the analgesic activity of the drug was studied using an acute pain model of photothermal tail flick in mice.
Subcutaneous administration on the back was chosen for subcutaneous administration (s.c.). A sterile 1 mL syringe was used and the drug with the volume of 0.1 mL/10 g was injected for administration. The back skin was grasped with the right hand, the needle was tilted in, and the drug was injected subcutaneously into the mouse's back. After the needle was inserted, shook it left and right, and observe to confirm that the needle had indeed entered the subcutaneous area to prevent the needle from puncturing the skin and leaking the drug.
The photothermal tail flick experiment is based on the experimental method summarized by D'Amour and Smith to optimize the experimental parameters. The experiment selected Kunming male mice with body weigh 21±2 g, and ambient temperature controlled at 22±2° C. The experimental mice were allowed to drink water freely and were moved from the breeding room to the experimental area for adaptation for 30 minutes before starting the experiment. Then the mice were grab with the right hand and the tail hang freely. Then the mice's tail were placed on a radiation light source, 2-3 mm away from the mice tail. The intensity of radiation heat was adjusted to the tail flick time of mice being 3-5 s, which is the basic pain threshold of photothermal tail flick. The irradiation time of the mice tail should not exceed 10 s to prevent scalding of the mice tail, which was the maximum latency for photothermal tail flick. After administration, time points of 10, 20, 30, 45, 60, 90, 120, 180, 240, 300, 360, and 420 minutes were selected to measure the tail flick latency of mice after administration.
The analgesic effect of drugs was generally evaluated using the maximum analgesic effect MPE (%), MPE (%)=100×[(pain threshold after administration−basic pain threshold)/(10 seconds−basic pain threshold)]. 50% effective dose (ED50) refers to the corresponding drug dose that causes a 50% effect. ED50 and 95% confidence interval were calculated using MPE (%) and the drug concentration that achieves the maximum analgesic effect MPE (%) by the statistical software GraphPad Prism 5.0. The difference in analgesic effects was statistically analyzed using one-way ANOVA (Dunnett test), *P<0.05, **P<0.01, and ***P<0.001 indicated significance of the difference between the group with only drug injected and the saline group.

SMILES: CN1C(=O)CNC(=O)[C@H](NC(=O)[C@@H](N)Cc2ccc(O)cc2)CCCCNC(=O)C[C@@H](C(=O)N2CCC[C@H]2C(=O)N[C@@H](CCC(N)=O)C(=O)N[C@@H](CCCNC(=N)N)C(=O)N[C@@H](Cc2ccccc2)C(N)=O)NC(=O)[C@@H]1Cc1ccccc1 [Compound 1, Tyr-c[D-Lys-Gly-NMe-Phe-Asp]-Pro-Gln-Arg-Phe-NH2] (H-Y[dK]G[NMeF]DPQRF-NH2; lactam 2-5)
- ED50 value (95% confidence interval), analgesic activity: 0.32 (0.27 to 0.38) μg/kg
